In one assay the test system is MCF-7. Briefly: Cytotoxic activity in vitro, SRB. Format: cell-based, human. As for the experimental part: (§1) Cytotoxic activity tests in-vitro. A measure of the cytotoxic activity of bis-acridines are the EC50 (concentration of studied compounds at which 50% inhibition of proliferation of tumorous is observed) of the evaluated compounds that inhibit the growth of 50% of cells in relation to a control. The cytotoxic activity of the compounds was determined using SRB, recommended by the US National Cancer Institute (USA). As the spectrum of 13 human origin neoplasms in bis-acridine screening studies, we used the following: HT 29 [CRC], HCT 116 [CRC], H 460 [lung cancer], MDA MB 231 [breast cancer], MCF-7 [breast cancer], UM UC3 [bladder cancer], PC 3 [prostate cancer], DU 145 [ prostate cancer], Panc-1 [pancreatic cancer], Mia Pa Ca 2 [pancreatic cancer], BXPC 3 [pancreatic cancer], AsPC1 [pancreatic cancer], Capan-2 [pancreatic cancer]. […] The DU-145 results were substantially a basis for selecting compounds and neoplasms for screening. The next neoplasms most sensitive to the cytotoxic activity of bis-acridines was the CRC HCT-116, as well as breast cancer MBA-MB-231. […] The cytotoxic activity of the remaining bis-acridines is significant or high (EC50 in the range from 1 to 0.04 μM). […] Panc-1, MiaPaCa-2 and Capan-2 are more sensitive, whereas for AsPC-1 and BxPC-3 this activity is at least an order of magnitude smaller.

A further assay has as its system BxPC-3. Briefly: Cytotoxic activity in vitro, SRB. Format: cell-based, human. As for the experimental part: as §1
In a further assay the test system is AsPC-1. As to the kind of experiment: Cytotoxic activity in vitro, SRB. Format: cell-based, human. The procedure: as §1
For the next assay, the system named is MiaPaCa-2. Briefly: Cytotoxic activity in vitro, SRB. It counts as cell-based, human. The procedure:
as §1

Another assay concerns Capan-2. As to the kind of experiment: Cytotoxic activity in vitro, SRB. Format: cell-based, human. As for the experimental part: as §1
In a further assay the test system is HCT-116. As to the kind of experiment: Cytotoxic activity in vitro, SRB. Format: cell-based, human. As for the experimental part: as §1
In the next assay the test system is MDA-MB-231. As to the kind of experiment: Cytotoxic activity in vitro, SRB. Format: cell-based, human. As for the experimental part:
as §1

Another assay has as its system PANC-1. Briefly: Cytotoxic activity in vitro, SRB. Format: cell-based, human. As for the experimental part:
as §1

The test system of the next assay is DU-145. As to the kind of experiment: Cytotoxic activity in vitro, SRB. Format: cell-based, human. As for the experimental part: as §1
Another assay relates to PANC 1. Briefly: Anti-neoplasmic activity against xenograft in hairless mice. Format: in vivo. As for the experimental part: (§2) For this, we selected 26 bis-acridines, mainly on the basis of the cytotoxic activity. We performed 34 series of experiments evaluating the anti-neoplasmic activity on xenografts in hairless mice against eleven neoplasms of human origin from the determination of the cytotoxic activity of bis-acridines (table 4). The tumours were injected subcutaneously to hairless mice of 5-weeks, female Crl:Nu-Foxnlnu, at a rate of 5×10^6 cells per mouse. After attaining a tumour of about 100 mm^3 or 200 mm^3 in depending on the neoplasm and its take this was 8 or even 30 days, and began therapy. On the day therapy was initiated, we randomised the animals and divided them into groups. Test groups were from 6 to 8 animals, and controls had from 8 to 14 animals. Each compound was tested at three differentiated doses.
(§3) The preparations were administered intravenously (i.v.) twice weekly for 4 weeks (thrice weekly for rapidly growing neoplasms). In several series, we used intraperitoneally (i.p.) administration in the same scheme. […] The therapeutic efficacy of the tested formulations was evaluated by measuring tumour size (length and width measurements of the tumour on the basis of the calculated tumour volume). Tumours were measured twice weekly for a period of about 30 days for fast-growing neoplasms, as well as about 60 days for the slow-growing neoplasms. The tumour volume in the treated groups compared with the control group. On this basis, inhibition of tumour growth was calculated using the following formula: Tumour growth inhibition TGI [%]=100−(ΔVT/ΔVC×100) Where ΔVT—is mean the tumour volume in animals in the group treated at the given day of treatment, minus the mean tumour volume in animals at the date of commencement of therapy. ΔVC is mean tumour volume in animals in the control group on a given day of treatment minus the average tumour volume of animals on the date of commencement of therapy. The results of the tests of anti-neoplasmic activity conducted in xenografts of human-origin neoplasms in mice are shown in Table 5.
(§4) The result above was accepted only in the case that the dose administered in all animals or more than half of the animals that survived to the end of the experiment. In addition, the evaluation was the day that the administration of the preparation was already completed: for the fast-growing neoplasms (eg. HCT116) this was in the days from 15 to 26, while for slow-growing neoplasms (eg. Panc 1) on a day from 34 to 60. […] In addition, the maximum inhibition of neoplasms could be identified in the day, in which there were no factors that could change the value TGI value.
(§5) Such factors may include: a significant decrease in body weight, the appearance of observable toxaemia, excessive rate of tumour growth: tumours in excess of 2000 mm^3 and all animals alive on that day.

The test system of a further assay is UM-UC-3. As to the kind of experiment: Cytotoxic activity in vitro, SRB. It counts as cell-based, human. As for the experimental part: as §1
A further assay relates to H-460. As to the kind of experiment: Cytotoxic activity in vitro, SRB. It counts as cell-based, human. The procedure: as §1
The next assay concerns HT-29. Briefly: Cytotoxic activity in vitro, SRB. It counts as cell-based, human. As for the experimental part:
as §1

The subject of another assay is PC-3. Briefly: Cytotoxic activity in vitro, SRB. Format: cell-based, human. As for the experimental part: as §1
Another assay relates to H 460. Briefly: Anti-neoplasmic activity against xenograft in hairless mice. It counts as in vivo. The procedure: as §2, §3, §4, §5
The subject of another assay is HCT 116. The description is as above. It counts as in vivo. As to conditions: series 8, i.p., day 23. As for the experimental part: as §2, §3, §4, §5
The subject of a further assay is DU 145. Described as above. It counts as in vivo. As to conditions: series 2, i.p., single 8 mg/kg, total 48 mg/kg, day 35. As for the experimental part: as §2, §3, §4, §5
Another assay has as its system Mia Pa Ca 2. Described as above. The note with it: series 28, i.v., single 5 mg/kg, total 28 mg/kg, day 33. Format: in vivo. The procedure:
as §2, §3, §4, §5

The next assay deals with BXPC 3. The assay is described as above. Format: in vivo. The note with it: series 25, i.p., single 10 mg/kg, total 80 mg/kg, day 32. As for the experimental part: as §2, §3, §4, §5

In the case of `CN(CCCNc1c2ccccc2nc2cccc([N+](=O)[O-])c12)CCCNc1ccc2ncn3c4ccc(O)cc4c(=O)c1c23` [C-2042, 9-{N-[(8-hydroxyimidazo[4,5,1-de]-acridin-6-on-5-yl)aminopropyl]-N-methylaminopropylamino}-1′-nitroacridine], the EC50 was 49 nM in the assay on MCF-7; 81 nM in the assay on BxPC-3; 82 nM with AsPC-1; 47 nM with MiaPaCa-2; 29 nM with Capan-2; 18 nM in the assay on HCT-116. Further, the concentration for a half-maximal effect (EC50) turned out to be 18 nM in the assay on MDA-MB-231, 55 nM in the assay on PANC-1 and 21 nM with DU-145. Besides, the “TGI [%] [100 − (ΔVT/ΔVC × 100]” value with PANC 1 (series 17, i.v., single 4 mg/kg, total 20 mg/kg, day 39, *at least half of animals did not survive) was 33* %.
As to `CN(CCCNc1c2ccccc2nc2cccc([N+](=O)[O-])c12)CCCNc1ccc([N+](=O)[O-])c2[nH]c3ccccc3c(=O)c12` [C-2026, 9-{N-[(4-nitro-9(10H)acridono-1-yl)aminopropyl]-N-methylaminopropylamino}-1′-nitroacridine], the EC50 came out at 29 nM in the assay on UM-UC-3; 10 nM in the assay with H-460; 695 nM in the assay with MCF-7; 67 nM with HT-29; 51 nM in the assay with PC-3; 66 nM in the assay with AsPC-1. For the same molecule, the EC50 stood at 103 nM in the assay with MiaPaCa-2; 260 nM in the assay on HCT-116; 28 nM in the assay with MDA-MB-231; 28 nM with PANC-1; 24 nM in the assay with DU-145. In addition, the “TGI [%] [100 − (ΔVT/ΔVC × 100]” value in the assay on H 460 (series 16, i.v., single 1 mg/kg, total 5 mg/kg, day 15) was 14%; in the assay with H 460 (series 16, i.v., single 4 mg/kg, total 16 mg/kg, day 14, *at least half of animals did not survive) it was 35* %.
For the molecule `O=c1c2ccccc2n2cnc3ccc(NCCNCCNCCNc4c5ccccc5nc5cccc([N+](=O)[O-])c45)c1c32` [C-2037], the concentration for a half-maximal effect (EC50) with MCF-7 was 82 nM; with BxPC-3 it was 138 nM; in the assay on AsPC-1 it was 86 nM; in the assay on MiaPaCa-2, 64 nM; with Capan-2, 44 nM; in the assay on HCT-116, 102 nM. Also, the concentration for a half-maximal effect (EC50) in the assay with MDA-MB-231 was found to be 27 nM; with PANC-1, 37 nM; in the assay with DU-145 it was 40 nM. Besides, in the assay on PANC 1 (series 17, i.v., single 4 mg/kg, total 16 mg/kg, day 39), the “TGI [%] [100 − (ΔVT/ΔVC × 100]” value came to 60%.
Turning to `Cc1ccc([N+](=O)[O-])c2c(NCCCN(C)CCCNc3ccc([N+](=O)[O-])c4[nH]c5ccccc5c(=O)c34)c3ccccc3nc12` [C-2029, 9-{N-[(4-nitro-9(10H)acridono-1-yl)aminopropyl]-N-methylaminopropylamino}-4′-methyl-1′-nitroacridine], the EC50 is 54 nM in the assay with UM-UC-3; 55 nM in the assay with H-460; 230 nM in the assay on HT-29; 74 nM with HCT-116; 110 nM with PANC-1; 44 nM in the assay with DU-145. The “TGI [%] [100 − (ΔVT/ΔVC × 100]” value in the assay with HCT 116 (single 20 mg/kg, total 100 mg/kg) worked out at 52%.
In the case of `O=c1c2ccccc2[nH]c2c([N+](=O)[O-])ccc(NCCNCCNCCNc3c4ccccc4nc4cccc([N+](=O)[O-])c34)c12` [C-2033, 9-[N-(4-nitro-9(10H)acridono-1-yl)-aminoethylaminoethylamino-ethylamino]-1′-nitroacridine], the EC50 with UM-UC-3 worked out at 15 nM; with MCF-7, 72 nM; in the assay on PC-3, 32 nM; with MiaPaCa-2, 48 nM; in the assay with HCT-116 it was 19 nM; with MDA-MB-231, 32 nM. The EC50 with PANC-1 was determined as 38 nM; in the assay on DU-145, 10 nM. Also, the “TGI [%] [100 − (ΔVT/ΔVC × 100]” value with HCT 116 (single 3 mg/kg, total 21 mg/kg) was determined as 37%.
Regarding `Cc1ccc([N+](=O)[O-])c2c(NCCCN3CCN(CCCNc4ccc(C)c5[nH]c6ccccc6c(=O)c45)CC3)c3ccccc3nc12` [C-2017, 1-[3-(4-methyl-9(10H)-acridono-1-yl)aminopropyl]-1-[3′-(4′-methyl-1′-nitroacridin-1-yl)-aminopropyl]piperazine], the EC50 amounted to 40 nM in the assay with H-460; 61 nM with HT-29; 67 nM in the assay on MiaPaCa-2; 47 nM with HCT-116; 48 nM with MDA-MB-231; 46 nM in the assay with DU-145. Besides, the “TGI [%] [100 − (ΔVT/ΔVC × 100]” value came to 25% in the assay on DU 145; 6% with H 460 (series 5, i.p., single 5 mg/kg, total 30 mg/kg, day 14); 75% in the assay with PANC 1 (series 31, i.v., single 15 mg/kg, total 120 mg/kg, day 51).
Take `Cc1ccc([N+](=O)[O-])c2c(NCCCN(C)CCCNc3ccc4ncn5c6ccc(O)cc6c(=O)c3c45)c3ccccc3nc12` [C-2045, 9-{N-[(8-hydroxyimidazo[4,5,1-de]-acridin-6-on-5-yl)aminopropyl]-N-methylaminopropylamino}-4′-methyl-1′-nitroacridine]: the EC50 with BxPC-3 was 169 nM; with AsPC-1, 152 nM; with MiaPaCa-2 it was 59 nM; with Capan-2 it was 52 nM; with HCT-116, 40 nM; in the assay with MDA-MB-231, 52 nM. Moreover, the EC50 came out at 216 nM in the assay on PANC-1 and 59 nM in the assay on DU-145. Besides, the “TGI [%] [100 − (ΔVT/ΔVC × 100]” value came to 55% in the assay on Mia Pa Ca 2; 77% with BXPC 3; 67% in the assay with PANC 1 (series 20, i.v., single 10 mg/kg, total 40 mg/kg, day 32); 82% with PANC 1 (series 24, i.v., single 2 mg/kg, total 16 mg/kg, day 44); 64% in the assay on PANC 1 (series 26, i.v., single 10 mg/kg, total 80 mg/kg, day 56); 25% in the assay on PANC 1 (series 29, i.v., single 5 mg/kg, total 25 mg/kg, day 36).

The values above are taken from patent US10202349B2, “Asymmetric bis-acridines with antitumour activity and their uses” (POLITECHNIKA GDAŃSKA, priority 2015, dated 2019).
